Test results: ChEMBL document CHEMBL1148775, “Synthesis and in vivo evaluation of fluorine-18 and iodine-123 labeled 2beta-carbo(2-fluoroethoxy)-3beta-(4'-((Z)-2-iodoethenyl)phenyl)nortropane as a candidate serotonin transporter imaging agent” (J Med Chem, 2007)

Columns and labels:
[1] = molecular target: Sodium-dependent serotonin transporter (Homo sapiens, UniProt P31645); assay: Binding affinity to human SERT expressed in HEK293 cells; format: cell-based
[2] = molecular target: Sodium-dependent noradrenaline transporter (Homo sapiens, UniProt P23975); assay: Binding affinity to human NET expressed in HEK293 cells; format: cell-based
Sodium-dependent noradrenaline transporter, sequence (P23975 whole entry): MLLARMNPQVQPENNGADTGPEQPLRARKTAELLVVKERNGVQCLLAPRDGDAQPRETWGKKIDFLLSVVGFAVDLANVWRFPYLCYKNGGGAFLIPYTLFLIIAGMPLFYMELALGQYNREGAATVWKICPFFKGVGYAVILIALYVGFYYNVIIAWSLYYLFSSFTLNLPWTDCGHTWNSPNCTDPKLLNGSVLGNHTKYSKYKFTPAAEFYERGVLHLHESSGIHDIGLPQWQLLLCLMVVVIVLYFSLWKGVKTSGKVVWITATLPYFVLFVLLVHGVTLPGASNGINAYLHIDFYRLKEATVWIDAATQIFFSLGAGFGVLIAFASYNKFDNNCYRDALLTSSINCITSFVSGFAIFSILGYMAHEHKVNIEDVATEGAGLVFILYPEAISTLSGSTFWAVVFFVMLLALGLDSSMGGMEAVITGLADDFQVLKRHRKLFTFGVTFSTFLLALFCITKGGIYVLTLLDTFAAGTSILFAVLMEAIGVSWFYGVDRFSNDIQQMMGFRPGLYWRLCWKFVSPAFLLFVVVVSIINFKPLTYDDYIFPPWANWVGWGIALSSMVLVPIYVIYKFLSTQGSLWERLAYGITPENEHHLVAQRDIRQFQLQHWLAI

[3] = Partition coefficient, log P at pH 7.4; format: physicochemical; conditions: octanol/water
[4] = molecular target: Sodium-dependent dopamine transporter (Homo sapiens, UniProt Q01959); assay: Binding affinity to human DAT expressed in HEK293 cells; format: cell-based
Sodium-dependent dopamine transporter, sequence (Q01959 whole entry): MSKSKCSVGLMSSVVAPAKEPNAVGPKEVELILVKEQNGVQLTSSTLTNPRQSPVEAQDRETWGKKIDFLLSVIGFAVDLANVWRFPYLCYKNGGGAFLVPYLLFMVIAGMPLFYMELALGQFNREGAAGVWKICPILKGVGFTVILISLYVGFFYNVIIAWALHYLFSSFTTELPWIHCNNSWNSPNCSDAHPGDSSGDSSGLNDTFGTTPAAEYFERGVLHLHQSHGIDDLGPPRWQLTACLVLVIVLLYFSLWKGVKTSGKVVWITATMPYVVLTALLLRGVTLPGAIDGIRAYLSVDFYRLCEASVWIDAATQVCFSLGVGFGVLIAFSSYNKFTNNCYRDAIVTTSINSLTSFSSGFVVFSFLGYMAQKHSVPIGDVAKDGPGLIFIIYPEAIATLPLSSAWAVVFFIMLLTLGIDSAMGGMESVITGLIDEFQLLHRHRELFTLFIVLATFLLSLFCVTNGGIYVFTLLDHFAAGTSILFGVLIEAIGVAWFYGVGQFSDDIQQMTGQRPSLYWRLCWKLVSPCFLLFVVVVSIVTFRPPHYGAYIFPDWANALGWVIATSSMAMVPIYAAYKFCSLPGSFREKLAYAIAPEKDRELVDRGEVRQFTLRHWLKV

[5] = Ratio of drug level in medulla to cerebellum in cynomolgus monkey after 235 mins; format: ADME, tissue-based, Macaca fascicularis; conditions: in vivo
[6] = Ratio of drug level in midbrain to cerebellum in cynomolgus monkey after 235 mins; format: ADME, tissue-based, Macaca fascicularis; conditions: in vivo
[7] = Ratio of drug level in caudate to cerebellum in cynomolgus monkey after 235 mins; format: ADME, tissue-based, Macaca fascicularis; conditions: in vivo
[8] = Ratio of drug level in occipital cortex to cerebellum in cynomolgus monkey after 235 mins; format: ADME, tissue-based, Macaca fascicularis; conditions: in vivo
[9] = Ratio of drug level in thalamus to cerebellum in cynomolgus monkey after 235 mins; format: ADME, tissue-based, Macaca fascicularis; conditions: in vivo
[10] = Ratio of drug level in putamen to cerebellum in cynomolgus monkey after 235 mins; format: ADME, tissue-based, Macaca fascicularis; conditions: in vivo
[11] = Biodistribution in iv dosed Sprague-Dawley rat striatum in presence of citalopram at 6 mg/kg after 60 mins; format: ADME, organism-based; set-up: dose 6 mg/kg, route intravenous; conditions: read-out: Drug uptake
[12] = Biodistribution in iv dosed Sprague-Dawley rat pons in presence of reboxetine at 6 mg/kg after 60 mins; format: ADME, organism-based; set-up: dose 6 mg/kg, route intravenous; conditions: read-out: Drug uptake
[13] = Biodistribution in iv dosed Sprague-Dawley rat occipital cortex in presence of citalopram at 6 mg/kg after 60 mins; format: ADME, organism-based; set-up: dose 6 mg/kg, route intravenous; conditions: read-out: Drug uptake
[14] = Biodistribution in iv dosed Sprague-Dawley rat occipital cortex after 60 mins; format: ADME, organism-based; conditions: read-out: Drug uptake
[15] = Biodistribution in iv dosed Sprague-Dawley rat cerebellum after 60 mins; format: ADME, organism-based; conditions: read-out: Drug uptake
[16] = Biodistribution in iv dosed Sprague-Dawley rat pre frontal cortex in presence of RTI-113 at 6 mg/kg after 60 mins; format: ADME, organism-based; set-up: dose 6 mg/kg, route intravenous; conditions: prefrontal cortex, read-out: Drug uptake
[17] = Biodistribution in iv dosed Sprague-Dawley rat hippocampus in presence of reboxetine at 6 mg/kg after 60 mins; format: ADME, organism-based; set-up: dose 6 mg/kg, route intravenous; conditions: read-out: Drug uptake
[18] = Biodistribution in iv dosed Sprague-Dawley rat hippocampus after 60 mins; format: ADME, organism-based; conditions: read-out: Drug uptake
[19] = tested on: Cerebellum; assay: Biodistribution in iv dosed Sprague-Dawley rat cerebellum after 5 mins; format: ADME, organism-based; conditions: in vivo
[20] = Biodistribution in iv dosed Sprague-Dawley rat hippocampus in presence of citalopram at 6 mg/kg after 60 mins; format: ADME, organism-based; set-up: dose 6 mg/kg, route intravenous; conditions: read-out: Drug uptake
[21] = Biodistribution in iv dosed Sprague-Dawley rat hippocampus in presence of RTI-113 at 6 mg/kg after 60 mins; format: ADME, organism-based; set-up: dose 6 mg/kg, route intravenous; conditions: read-out: Drug uptake
[22] = Biodistribution in iv dosed Sprague-Dawley rat hypothalamus in presence of citalopram at 6 mg/kg after 60 mins; format: ADME, organism-based; set-up: dose 6 mg/kg, route intravenous; conditions: read-out: Drug uptake
[23] = Biodistribution in iv dosed Sprague-Dawley rat cerebellum in presence of RTI-113 at 6 mg/kg after 60 mins; format: ADME, organism-based; set-up: dose 6 mg/kg, route intravenous; conditions: read-out: Drug uptake
[24] = Biodistribution in iv dosed Sprague-Dawley rat pons after 60 mins; format: ADME, organism-based; conditions: read-out: Drug uptake
[25] = Biodistribution in iv dosed Sprague-Dawley rat cerebellum in presence of reboxetine at 6 mg/kg after 60 mins; format: ADME, organism-based; set-up: dose 6 mg/kg, route intravenous; conditions: read-out: Drug uptake
[26] = Biodistribution in iv dosed Sprague-Dawley rat occipital cortex in presence of RTI-113 at 6 mg/kg after 60 mins; format: ADME, organism-based; set-up: dose 6 mg/kg, route intravenous; conditions: read-out: Drug uptake
[27] = Biodistribution in iv dosed Sprague-Dawley rat hypothalamus in presence of reboxetine at 6mg/kg after 60 mins; format: ADME, organism-based; conditions: read-out: Drug uptake
[28] = Biodistribution in iv dosed Sprague-Dawley rat occipital cortex in presence of reboxetine at 6 mg/kg after 60 mins; format: ADME, organism-based; set-up: dose 6 mg/kg, route intravenous; conditions: read-out: Drug uptake
[29] = Biodistribution in iv dosed Sprague-Dawley rat pons in presence of RTI-113 at 6 mg/kg after 60 mins; format: ADME, organism-based; set-up: dose 6 mg/kg, route intravenous; conditions: read-out: Drug uptake
[30] = Biodistribution in iv dosed Sprague-Dawley rat pre frontal cortex in presence of citalopram at 6 mg/kg after 60 mins; format: ADME, organism-based; set-up: dose 6 mg/kg, route intravenous; conditions: prefrontal cortex, read-out: Drug uptake
[31] = Biodistribution in iv dosed Sprague-Dawley rat pons in presence of citalopram at 6 mg/kg after 60 mins; format: ADME, organism-based; set-up: dose 6 mg/kg, route intravenous; conditions: read-out: Drug uptake
[32] = Biodistribution in iv dosed Sprague-Dawley rat striatum in after 60 mins; format: ADME, organism-based; conditions: read-out: Drug uptake
[33] = Biodistribution in iv dosed Sprague-Dawley rat hypothalamus after 60 mins; format: ADME, organism-based; conditions: read-out: Drug uptake
[34] = Biodistribution in iv dosed Sprague-Dawley rat cerebellum in presence of citalopram at 6 mg/kg after 60 mins; format: ADME, organism-based; set-up: dose 6 mg/kg, route intravenous; conditions: read-out: Drug uptake
[35] = Biodistribution in iv dosed Sprague-Dawley rat striatum in presence of reboxetine at 6 mg/kg after 60 mins; format: ADME, organism-based; set-up: dose 6 mg/kg, route intravenous; conditions: read-out: Drug uptake
[36] = Biodistribution in iv dosed Sprague-Dawley rat striatum in presence of RTI-113 at 6 mg/kg after 60 mins; format: ADME, organism-based; set-up: dose 6 mg/kg, route intravenous; conditions: read-out: Drug uptake
[37] = Biodistribution in iv dosed Sprague-Dawley rat hypothalamus in presence of RTI-113 at 6 mg/kg after 60 mins; format: ADME, organism-based; set-up: dose 6 mg/kg, route intravenous; conditions: read-out: Drug uptake
[38] = Biodistribution in iv dosed Sprague-Dawley rat pre frontal cortex after 60 mins; format: ADME, organism-based; conditions: prefrontal cortex, read-out: Drug uptake
[39] = Biodistribution in iv dosed Sprague-Dawley rat pre frontal cortex in presence of reboxetine at 6 mg/kg after 60 mins; format: ADME, organism-based; set-up: dose 6 mg/kg, route intravenous; conditions: prefrontal cortex, read-out: Drug uptake

Sodium-dependent serotonin transporter, sequence (P31645 whole entry): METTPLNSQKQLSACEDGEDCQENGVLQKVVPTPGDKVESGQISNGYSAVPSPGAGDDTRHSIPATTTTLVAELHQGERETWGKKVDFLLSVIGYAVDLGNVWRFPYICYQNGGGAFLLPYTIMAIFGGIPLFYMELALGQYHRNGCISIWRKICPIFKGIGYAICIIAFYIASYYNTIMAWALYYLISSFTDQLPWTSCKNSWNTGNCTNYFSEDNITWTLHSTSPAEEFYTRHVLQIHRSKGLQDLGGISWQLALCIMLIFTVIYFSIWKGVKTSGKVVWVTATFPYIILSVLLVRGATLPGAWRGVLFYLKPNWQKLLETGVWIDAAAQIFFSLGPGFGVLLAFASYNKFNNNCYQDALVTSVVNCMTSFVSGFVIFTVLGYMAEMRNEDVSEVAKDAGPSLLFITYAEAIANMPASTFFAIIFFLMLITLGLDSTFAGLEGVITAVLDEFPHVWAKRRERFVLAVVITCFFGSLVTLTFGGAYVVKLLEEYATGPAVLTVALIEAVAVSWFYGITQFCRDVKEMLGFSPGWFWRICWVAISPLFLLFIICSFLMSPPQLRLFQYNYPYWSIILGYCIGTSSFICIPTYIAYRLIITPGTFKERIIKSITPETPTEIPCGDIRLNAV

Compound: O=C(OCCF)C1C2CCC(CC1c1ccc(/C=C\I)cc1)N2 (centres undefined)
- Ki [1]: 0.08 nM
- Ki [2]: 28 nM
- logD [3]: 1.8
- Ki [4]: 13 nM

Compound: O=C(OCC[18F])C1C2CCC(CC1c1ccc(/C=C\I)cc1)N2 (centres undefined)
- Ratio [5]: 3.3
- Ratio [6]: 4.4
- Ratio [7]: 2.6
- Ratio [8]: 1.6
- Ratio [9]: 3.3
- Ratio [10]: 3.8

Compound: O=C(OCCF)C1C2CCC(CC1c1ccc(/C=C\[123I])cc1)N2 (centres undefined)
- tissue uptake at 1 h [11]: 0.15 %ID/g
- tissue uptake at 1 h [12]: 0.2 %ID/g
- tissue uptake at 1 h [13]: 0.16 %ID/g
- tissue uptake at 1 h [14]: 0.24 %ID/g
- tissue uptake at 1 h [15]: 0.12 %ID/g
- tissue uptake at 1 h [16]: 0.28 %ID/g
- tissue uptake at 1 h [17]: 0.23 %ID/g
- tissue uptake at 1 h [18]: 0.24 %ID/g
- Drug uptake [19]: 0.24 % ID/g
- tissue uptake at 1 h [20]: 0.16 %ID/g
- tissue uptake at 1 h [21]: 0.25 %ID/g
- tissue uptake at 1 h [22]: 0.18 %ID/g
- tissue uptake at 1 h [23]: 0.12 %ID/g
- tissue uptake at 1 h [24]: 0.22 %ID/g
- tissue uptake at 1 h [25]: 0.13 %ID/g
- tissue uptake at 1 h [26]: 0.24 %ID/g
- tissue uptake at 1 h [27]: 0.26 %ID/g
- tissue uptake at 1 h [28]: 0.23 %ID/g
- tissue uptake at 1 h [29]: 0.22 %ID/g
- tissue uptake at 1 h [30]: 0.17 %ID/g
- tissue uptake at 1 h [31]: 0.14 %ID/g
- tissue uptake at 1 h [32]: 0.25 %ID/g
- tissue uptake at 1 h [33]: 0.27 %ID/g
- tissue uptake at 1 h [34]: 0.11 %ID/g
- tissue uptake at 1 h [35]: 0.26 %ID/g
- tissue uptake at 1 h [36]: 0.26 %ID/g
- tissue uptake at 1 h [37]: 0.32 %ID/g
- tissue uptake at 1 h [38]: 0.26 %ID/g
- tissue uptake at 1 h [39]: 0.28 %ID/g
